Assay results published in paper PMC8979682, “Synthesis, Antioxidant, and Antidiabetic Activities of Ketone Derivatives of Succinimide” (Evidence-based Complementary and Alternative Medicine : eCAM, 2022).
Values after ≈ are worked out from the molar mass of the structure shown.

Key:
α-amylase = assay: in vitro α-amylase inhibition; format: biochemical
Method: The starch solution was added, following incubation of the mixture, and the reaction mixture thus prepared was kept in water bath at 100°C for some time. Microplate reader measured the intensity of the color at 656 nm. Following formula was used to determine percentage inhibition:(3) percent inhibition=absorbancecontrol−absorbancesample/absorbancecontrol×100.

α-glucosidase = assay: in vitro α-glucosidase inhibition; format: biochemical
Method: For in vitro α-glucosidase activity, samples were prepared by adding glucopyranoside to phosphate buffer solvent, and different concentrations of the synthesized compounds (31.25, 62.5, 125, 250, and 500 µg/ml), respectively, were added to this solution and then the enzyme glucosidase in distilled water (0.5 µg/ml) was also added to the above mixture. The reaction mixture thus prepared was subjected to incubation at 37°C for 20 minutes. The reaction was halted by adding HCl after incubation of the mixture. The intensity of the color was determined at 540 nm by spectrophotometer, and the formula given below was used for the determination of percent inhibition:(2) percent inhibition=absorbancecontrol−absorbancesample/absorbancecontrol×100.

[1] = test system: diabetic mice (by alloxan); assay: antidiabetic activity in diabetic mice (by alloxan); format: in vivo
Method: Alloxan was used for the induction of diabetes mellitus according to reported procedure. Recently prepared Alloxan (ALX) was injected intraperitoneally to animals, fasting for 16 h, at a single dose of (150 mg/kg). […] Only diabetic animals, having random blood glucose level more than 200 mg/dl, were selected for studies. All the experimental procedure were approved from the ethical committee department of pharmacy, University of Swabi via letter No; UOS-06/2021.
A total of 30 animals were used to determine the hypoglycemic effect of the synthesized derivatives of succinimide. The experimental animals were segregated in six groups […], having five (5) animals in each group. Group I was designated as normal group and was given normal saline I/P only. Group II was given Tween 80, and Group III was given standard drug (glibenclamide) after the induction of diabetes. Group IV, Group V, and Group VI were given the various doses of synthesized compounds, respectively. […]

DPPH scavenging activity = format: biochemical
Method: The antioxidant assay of the synthesized compounds was conducted following the previously reported method. A freshly prepared DPPH solution (50 μL of 1.0 × 10^−3 M) was added in methyl alcohol. Methanol was used as a control in this experiment. The prepared mixture was subjected to incubation at 25°C for 30 min. A decrease in the DPPH free radical concentration was calculated using a spectrophotometer at a wavelength of 517 nm. After incubation ascorbic acid was used as a positive control. The antioxidant activity was determined as a percent (%) of inhibition using the formula given:(1) percent inhibition=absorbancecontrol−absorbancesample/absorbancecontrol×100.

ABTS scavenging activity = format: biochemical
Method: For the determination of the antioxidant activity of the synthesized compounds, the previously reported method for ABTS scavenging activity was used with slight modification. The stock solution of 2.4 mM of potassium per sulfate solution and 7 mM ABTS solution was prepared by mixing them in equal volumes for 16 h. The stock solution thus prepared was diluted using methyl alcohol to give absorption of 0.7 ± 0.02 units when studied at the wavelength of 734 nm using a spectrophotometer. Fresh ABTS solution was prepared for each ABTS scavenging assay. About 150 μL of the ABTS working solution was added to 50 μL of synthesized compounds and kept in darkness for 10 min. […] Methanol was used as blank, and standard ascorbic acid was run at the same time. The absorbance was calculated utilizing a microplate reader at 734 nm.

mice = assay: oral glucose tolerance test (OGTT); format: in vivo; details: glucose 2 g/kg orally
Method: To perform OGTT mice fasted overnight were used including both control and treated mice. Glucose was administered orally at the dose of 2 g/kg against glibenclamide as standard drug. After administration of glucose, blood glucose level was calculated at time intervals of 0, 30, 60, and 120 min for assessment of the impact of exogenously given D-glucose on treated mice. OGTT was carried out 5 days before the completion of the study.
To perform OGTT, mice fasted overnight were used including both control and treated mice. Glucose was administered orally at the dose of 2 g/kg against glibenclamide as a standard drug. After administration of glucose, blood glucose level was calculated at time intervals of 0, 30, 60, and 120 min for assessment of the impact of exogenously given D-glucose on treated mice.

SMILES: O=C1CCCCC1C1CC(=O)N(Cc2ccccc2)C1=O (stereo not drawn) [BW2, Benzyl-3-(2-Oxocyclohexyl) Pyrrolidine-2,5-Dione]
- IC50 (α-amylase) (α-amylase): 15.34 µg/mL (≈ 53.8 µM)
- % inhibitions (α-amylase) (α-amylase; 31.25 µg/ml): 55.85 ± 0.17^∗∗∗ %
- % inhibitions (α-amylase) (α-amylase; 62.50 µg/ml): 63.72 ± 0.11^∗∗∗ %
- % inhibitions (α-amylase) (α-amylase; 125 µg/ml): 67.44 ± 0.15^∗∗∗ %
- % inhibitions (α-amylase) (α-amylase; 250 µg/ml): 73.14 ± 0.49^∗∗∗ %
- % inhibitions (α-amylase) (α-amylase; 500 µg/ml): 78.69 ± 0.14^∗∗∗ %
- IC50 (α-glucosidase) (α-glucosidase): 10.81 µg/mL (≈ 37.9 µM)
- % inhibitions (α-glucosidase) (α-glucosidase; 31.25 µg/ml): 62.44 ± 0.55^∗∗ %
- % inhibitions (α-glucosidase) (α-glucosidase; 62.50 µg/ml): 68.47 ± 0.52^∗∗∗ %
- % inhibitions (α-glucosidase) (α-glucosidase; 125 µg/ml): 74.39 ± 0.49^∗∗∗ %
- % inhibitions (α-glucosidase) (α-glucosidase; 250 µg/ml): 81.34 ± 0.55^∗ %
- % inhibitions (α-glucosidase) (α-glucosidase; 500 µg/ml): 87.36 ± 0.49^∗ %
- Change in body weight ([1]; dose 31.25 μg/kg): −6.8 Gm
- Decrease in blood glucose after 15 days ([1]; dose 31.25 μg/kg): 35 mg/dL
- Blood glucose level, 0 day ([1]; dose 31.25 μg/kg): 452 mg/dL
- Blood glucose level, 4th day ([1]; dose 31.25 μg/kg): 448 mg/dL
- Blood glucose level, 7th day ([1]; dose 31.25 μg/kg): 431 mg/dL
- Blood glucose level, 10th day ([1]; dose 31.25 μg/kg): 425 mg/dL
- Blood glucose level, 15th day ([1]; dose 31.25 μg/kg): 417 mg/dL
- Change in body weight ([1]; dose 62.5 μg/kg): −4.6 Gm
- Decrease in blood glucose after 15 days ([1]; dose 62.5 μg/kg): 58 mg/dL
- Blood glucose level, 0 day ([1]; dose 62.5 μg/kg): 386 mg/dL
- Blood glucose level, 4th day ([1]; dose 62.5 μg/kg): 359 mg/dL
- Blood glucose level, 7th day ([1]; dose 62.5 μg/kg): 349 mg/dL
- Blood glucose level, 10th day ([1]; dose 62.5 μg/kg): 336 mg/dL
- Blood glucose level, 15th day ([1]; dose 62.5 μg/kg): 328 mg/dL
- Change in body weight ([1]; dose 125 μg/kg): −3.7 Gm
- Decrease in blood glucose after 15 days ([1]; dose 125 μg/kg): 68 mg/dL
- Blood glucose level, 0 day ([1]; dose 125 μg/kg): 437 mg/dL
- Blood glucose level, 4th day ([1]; dose 125 μg/kg): 431 mg/dL
- Blood glucose level, 7th day ([1]; dose 125 μg/kg): 422 mg/dL
- Blood glucose level, 10th day ([1]; dose 125 μg/kg): 394 mg/dL
- Blood glucose level, 15th day ([1]; dose 125 μg/kg): 369 mg/dL
- Change in body weight ([1]; dose 250 μg/kg): +3.4 Gm
- Decrease in blood glucose after 15 days ([1]; dose 250 μg/kg): 111 mg/dL
- Blood glucose level, 0 day ([1]; dose 250 μg/kg): 466 mg/dL
- Blood glucose level, 4th day ([1]; dose 250 μg/kg): 461 mg/dL
- Blood glucose level, 7th day ([1]; dose 250 μg/kg): 443 mg/dL
- Blood glucose level, 10th day ([1]; dose 250 μg/kg): 407 mg/dL
- Blood glucose level, 15th day ([1]; dose 250 μg/kg): 355 mg/dL
- Change in body weight ([1]; dose 500 μg/kg): +7.4 Gm
- Decrease in blood glucose after 15 days ([1]; dose 500 μg/kg): 199 mg/dL
- Blood glucose level, 0 day ([1]; dose 500 μg/kg): 456 mg/dL
- Blood glucose level, 4th day ([1]; dose 500 μg/kg): 402 mg/dL
- Blood glucose level, 7th day ([1]; dose 500 μg/kg): 361 mg/dL
- Blood glucose level, 10th day ([1]; dose 500 μg/kg): 303 mg/dL
- Blood glucose level, 15th day ([1]; dose 500 μg/kg): 257 mg/dL
- IC50 (DPPH) (DPPH scavenging activity): 12.81 µg/mL (≈ 44.9 µM)
- (%) DPPH inhibitions (DPPH scavenging activity; 31.25 µg/ml): 56.65 ± 1.34^∗∗∗ %
- (%) DPPH inhibitions (DPPH scavenging activity; 62.50 µg/ml): 61.58 ± 1.12^∗∗∗ %
- (%) DPPH inhibitions (DPPH scavenging activity; 125 µg/ml): 66.40 ± 0.25^∗∗∗ %
- (%) DPPH inhibitions (DPPH scavenging activity; 250 µg/ml): 71.67 ± 1.20^∗∗∗ %
- (%) DPPH inhibitions (DPPH scavenging activity; 500 µg/ml): 75.09 ± 0.32^∗∗∗ %
- IC50 (ABTS) (ABTS scavenging activity): 12.87 µg/mL (≈ 45.1 µM)
- (%) ABTS inhibitions (ABTS scavenging activity; 31.25 µg/ml): 57.40 ± 0.76^∗∗∗ %
- (%) ABTS inhibitions (ABTS scavenging activity; 62.50 µg/ml): 61.35 ± 0.51^∗∗∗ %
- (%) ABTS inhibitions (ABTS scavenging activity; 125 µg/ml): 66.90 ± 0.96^∗∗∗ %
- (%) ABTS inhibitions (ABTS scavenging activity; 250 µg/ml): 71.08 ± 0.47^∗∗∗ %
- (%) ABTS inhibitions (ABTS scavenging activity; 500 µg/ml): 76.85 ± 2.24^∗∗∗ %
- OGTT blood glucose, 0 minutes (mice; 0 minutes): 163.7 mg/dL
- OGTT blood glucose, 30 minutes (mice; 30 minutes): 189.2 mg/dL
- OGTT blood glucose, 60 minutes (mice; 60 minutes): 214.8 mg/dL
- OGTT blood glucose, 120 minutes (mice; 120 minutes): 151.4 mg/dL
